Laboratory results reported in US20050239842A1, “Methods of using and compositions comprising immunomodulatory compounds for the treatment and management of pulmonary hypertension” (priority 2004, published 2005).

What was measured:
patients with PH [1] = experiment: Expanded clinical study in PH patients, WHO functional class III or IV, 16 weeks; assay type: in vivo, human
Description: On the basis of the results of the above study 2, the clinical study is expanded with additional 213 PH patients for at least 16 weeks. The study is conducted with patients with PH, WHO functional class III or IV. Two hundred thirteen patients are randomized to receive either 5 mg bid or 10 mg bid of 3-(4-amino-1-oxo-1,3-dihydro-isoindol-2-yl)-piperidine-2,6-dione or placebo in a 1:1:1 ratio. The primary endpoint, a 6-minute walk distance, is evaluated at 16 weeks. The treated patients walk 36.4 meters further at 16 weeks compared to a 7.8 meter reduction in walk distance in the placebo group, for a treatment effect of 44.2 meters. Clinical worsening, defined by death, premature withdrawal from study, hospitalization for worsening of PH or institution of epoprostenol, occur in 37% of placebo-treated patients, compared with 11% of the patients treated with the compound of the invention.

[2] = tested on: production of various cytokines; experiment: In vitro pharmacological activity profile compared with thalidomide; assay type: cell-based; conditions: in vitro studies
From the text: The pharmacological properties of 3-(4-amino-1 -oxo-1,3-dihydro-isoindol-2-yl)-piperidine-2,6-dione, including activity comparisons with thalidomide, have been characterized in in vitro studies. Studies examined the effects of 3-(4-amino-1-oxo-1,3-dihydro-isoindol-2-yl)-piperidine-2,6-dione or thalidomide on the production of various cytokines.
The pharmacological effects of 3-(4-amino-1-oxo-1,3-dihydro-isoindol-2-yl)-piperidine-2,6-dione derive from its action as an inhibitor of cellular response to receptor-initiated trophic signals (e.g., IGF-1, VEGF, […]), and other activities. As a result, 3-(4-amino-1-oxo-1,3-dihydro-isoindol-2-yl)-piperidine-2,6-dione suppresses the generation of inflammatory cytokines, down-regulates adhesion molecules and apoptosis inhibitory proteins (e.g., cFLIP, clAP), promotes sensitivity to death-receptor initiated programmed cell death, and suppresses angiogenic response.

patients with PH [3] = experiment: Clinical Study 2 in PH patients, 12 weeks, placebo controlled; assay type: in vivo, human
Description: In one embodiment of the invention, 3-(4-amino-1-oxo-1,3-dihydro-isoindol-2-yl)-piperidine-2,6-dione is administered in a single or divided daily doses in an amount of from about 1 to about 100 mg/day. In another embodiment of the invention, 3-(4-amino-1-oxo-1,3-dihydro-isoindol-2-yl)-piperidine-2,6-dione is administered from about 1 to about 20 mg/day individually. The compound is administered to patients with PH for 12 weeks, who are subsequently evaluated for a decline in walk distance, dyspnea score, functional class, pulmonary hemodynamic response. The first study enrolls 32 patients with PH. Patients are all in modified New York Heart Association functional class III at the onset of the study. Patents are maximally treated and are stable on conventional therapy, including calcium channel antagonists and diuretics. Two thirds of patients receive 5 mg of 3-(4-amino-1-oxo-1,3-dihydro-isoindol-2-yl)-piperidine-2,6-dione for four weeks followed by 10 mg of the compound for eight weeks. One third of patients receive placebo. The primary efficacy endpoint is a 6-minute walk distance. Patients receiving the compound of the invention walk an average of 70 meters farther after 12 weeks while placebo patients have a decline in walk distance. In addition, the treated patients have improvements in dyspnea score and functional class compared with placebo patients. Pulmonary hemodynamic measurements reveal decreases in pulmonary arterial pressure and pulmonary vascular resistance, and increase in cardiac output after 12 weeks of the treatment, compared with worsening of pulmonary hemodynamics in placebo patients. All these changes in treated patients are highly significant compared with placebo.

[4] = cited from earlier work

SMILES	treatment effect on 6-minute walk distance versus placebo (patients with PH [1]; at 16 weeks)	6-minute walk distance, increase (patients with PH [1]; at 16 weeks, 5 mg bid or 10 mg bid)	clinical worsening (death, premature withdrawal, hospitalization for worsening of PH or institution of epoprostenol), share of patients (patients with PH [1]; treated patients)	functional class (patients with PH [1]; treated versus placebo patients)	potency relative to thalidomide [2]	dyspnea score and functional class (patients with PH [3]; 12 weeks, compared with placebo patients)	cardiac output (patients with PH [3]; after 12 weeks of treatment)	pulmonary arterial pressure and pulmonary vascular resistance (patients with PH [3]; after 12 weeks of treatment)	6-minute walk distance, average increase (patients with PH [3]; after 12 weeks, 5 mg for four weeks then 10 mg for eight weeks)	stability among forms in aqueous solvent systems [4]
Nc1cccc2c1CN(C1CCC(=O)NC1=O)C2=O (stereo not shown) [3-(4-amino-1-oxo-1,3-dihydro-isoindol-2-yl)-piperidine-2,6-dione]	44.2 meters	36.4 meters	11%	improved significantly more	50 to 2,000 times	improvements	increase	decreases	70 meters	–
Nc1cccc2c1CN(C1CCC(=O)NC1=O)C2=O (stereo not shown) [Form E, 3-(4-amino-1-oxo-1,3 dihydro-isoindol-2-yl)-piperidene-2,6-dione]	–	–	–	–	–	–	–	–	–	most stable form
